# Measured values reported in article PMC12748989 (Nature Communications, 2025).
# How the values were obtained:
# [1] = system: MDA-MB-231 cells
# [2] = system: PBMC; details: 12.5 µM
SMILES,"Average (percentage cell inhibition), Dmastoparan MDA-MB231 12.5uM [1] [%]","Average (percentage cell inhibition), Mastoparan PBMC [2] [%]"
CC[C@H](C)[C@H](N)C(=O)N[C@@H](CC(N)=O)C(=O)N[C@@H](CC(C)C)C(=O)N[C@@H](CCCCN)C(=O)N[C@@H](CCCNC(=N)N)C(=O)N[C@@H](CC(C)C)C(=O)N[C@@H](C)C(=O)N[C@@H](C)C(=O)N[C@@H](CC(C)C)C(=O)N[C@@H](C)C(=O)N[C@@H](CCCCN)C(=O)N[C@@H](CCCCN)C(=O)N[C@H](C(=O)N[C@@H](CC(C)C)C(N)=O)[C@@H](C)CC [R5],27.1833,-0.4192
CC[C@H](C)[C@H](N)C(=O)N[C@@H](C)C(=O)N[C@@H](CC(C)C)C(=O)N[C@@H](CCCCN)C(=O)N[C@@H](C)C(=O)N[C@@H](CC(C)C)C(=O)N[C@@H](C)C(=O)N[C@@H](C)C(=O)N[C@@H](CC(C)C)C(=O)N[C@@H](C)C(=O)N[C@@H](CCCCN)C(=O)N[C@@H](CCCCN)C(=O)N[C@H](C(=O)N[C@@H](CC(C)C)C(N)=O)[C@@H](C)CC [A2],38.1038,9.183
CC[C@H](C)[C@H](N)C(=O)N[C@@H](CC(N)=O)C(=O)N[C@@H](CC(C)C)C(=O)N[C@@H](CCCCN)C(=O)N[C@@H](C)C(=O)N[C@@H](CC(C)C)C(=O)N[C@@H](C)C(=O)N[C@@H](C)C(=O)N[C@@H](CCC(=O)O)C(=O)N[C@@H](C)C(=O)N[C@@H](CCCCN)C(=O)N[C@@H](CCCCN)C(=O)N[C@H](C(=O)N[C@@H](CC(C)C)C(N)=O)[C@@H](C)CC [E9],4.314,0.4268
CC[C@H](C)[C@H](N)C(=O)N[C@@H](CC(N)=O)C(=O)N[C@@H](CC(C)C)C(=O)N[C@@H](CCCCN)C(=O)N[C@@H](C)C(=O)N[C@@H](CC(C)C)C(=O)N[C@@H](CCC(N)=O)C(=O)N[C@@H](C)C(=O)N[C@@H](CC(C)C)C(=O)N[C@@H](C)C(=O)N[C@@H](CCCCN)C(=O)N[C@@H](CCCCN)C(=O)N[C@H](C(=O)N[C@@H](CC(C)C)C(N)=O)[C@@H](C)CC [Q7],23.653,9.246
CC[C@H](C)[C@H](N)C(=O)N[C@@H](CC(N)=O)C(=O)N[C@@H](CC(C)C)C(=O)N[C@@H](CCCCN)C(=O)N[C@@H](C)C(=O)N[C@@H](CC(C)C)C(=O)N[C@@H](C)C(=O)N[C@@H](C)C(=O)N[C@@H](CC(C)C)C(=O)N[C@@H](C)C(=O)N[C@@H](CCCCN)C(=O)N[C@@H](CCCCN)C(=O)N[C@H](C(=O)N[C@@H](C)C(N)=O)[C@@H](C)CC [A14],12.3553,6.423
CC[C@H](C)[C@H](N)C(=O)N[C@@H](CC(N)=O)C(=O)N[C@@H](CC(C)C)C(=O)N[C@@H](CCCCN)C(=O)N[C@@H](Cc1c[nH]cn1)C(=O)N[C@@H](CC(C)C)C(=O)N[C@@H](C)C(=O)N[C@@H](C)C(=O)N[C@@H](CC(C)C)C(=O)N[C@@H](C)C(=O)N[C@@H](CCCCN)C(=O)N[C@@H](CCCCN)C(=O)N[C@H](C(=O)N[C@@H](CC(C)C)C(N)=O)[C@@H](C)CC [H5],26.5106,3.516
CC[C@H](C)[C@H](N)C(=O)N[C@@H](CC(N)=O)C(=O)N[C@@H](CC(C)C)C(=O)N[C@@H](CCCCN)C(=O)N[C@@H](C)C(=O)N[C@@H](CC(C)C)C(=O)N[C@@H](C)C(=O)N[C@@H](C)C(=O)N[C@@H](CC(C)C)C(=O)N[C@@H](C)C(=O)N[C@@H](CCCCN)C(=O)N[C@@H](CCCCN)C(=O)N[C@H](C(=O)N[C@@H](Cc1c[nH]cn1)C(N)=O)[C@@H](C)CC [H14],14.7055,-11.4515
CC[C@H](C)[C@H](N)C(=O)N[C@@H](CC(N)=O)C(=O)N[C@@H](CC(C)C)C(=O)N[C@@H](CCCCN)C(=O)N[C@@H](C)C(=O)N[C@@H](CC(C)C)C(=O)N[C@@H](C)C(=O)N[C@@H](C)C(=O)N[C@H](C(=O)N[C@@H](C)C(=O)N[C@@H](CCCCN)C(=O)N[C@@H](CCCCN)C(=O)N[C@H](C(=O)N[C@@H](CC(C)C)C(N)=O)[C@@H](C)CC)[C@@H](C)CC [I9],25.9927,12.8506
CC[C@H](C)[C@H](N)C(=O)N[C@@H](CC(N)=O)C(=O)N[C@@H](CC(C)C)C(=O)N[C@@H](CCCCN)C(=O)N[C@@H](C)C(=O)N[C@@H](CC(C)C)C(=O)N[C@@H](C)C(=O)N[C@@H](C)C(=O)N[C@@H](CC(C)C)C(=O)N[C@@H](C)C(=O)N[C@@H](CCCCN)C(=O)NCC(=O)N[C@H](C(=O)N[C@@H](CC(C)C)C(N)=O)[C@@H](C)CC [G12],17.8169,13.7945
CC[C@H](C)[C@H](N)C(=O)N[C@@H](CC(N)=O)C(=O)N[C@@H](CC(C)C)C(=O)N[C@@H](CCCCN)C(=O)N[C@@H](C)C(=O)N[C@@H](CC(C)C)C(=O)N[C@@H](C)C(=O)N[C@@H](C)C(=O)N[C@@H](CCC(N)=O)C(=O)N[C@@H](C)C(=O)N[C@@H](CCCCN)C(=O)N[C@@H](CCCCN)C(=O)N[C@H](C(=O)N[C@@H](CC(C)C)C(N)=O)[C@@H](C)CC [Q9],30.6331,2.087
CC[C@H](C)[C@H](N)C(=O)N[C@@H](CC(N)=O)C(=O)N[C@@H](C)C(=O)N[C@@H](CCCCN)C(=O)N[C@@H](C)C(=O)N[C@@H](CC(C)C)C(=O)N[C@@H](C)C(=O)N[C@@H](C)C(=O)N[C@@H](CC(C)C)C(=O)N[C@@H](C)C(=O)N[C@@H](CCCCN)C(=O)N[C@@H](CCCCN)C(=O)N[C@H](C(=O)N[C@@H](CC(C)C)C(N)=O)[C@@H](C)CC [A3],17.9778,-7.622
CC[C@H](C)[C@H](N)C(=O)N[C@@H](CC(N)=O)C(=O)N[C@@H](CC(C)C)C(=O)N[C@@H](CCCCN)C(=O)N[C@@H](C)C(=O)N[C@@H](CC(C)C)C(=O)N[C@@H](C)C(=O)N[C@@H](C)C(=O)N[C@@H](CC(C)C)C(=O)N[C@@H](Cc1c[nH]cn1)C(=O)N[C@@H](CCCCN)C(=O)N[C@@H](CCCCN)C(=O)N[C@H](C(=O)N[C@@H](CC(C)C)C(N)=O)[C@@H](C)CC [H10],-5.968,-10.8779
CC[C@H](C)[C@H](N)C(=O)N1CCC[C@H]1C(=O)N[C@@H](CC(C)C)C(=O)N[C@@H](CCCCN)C(=O)N[C@@H](C)C(=O)N[C@@H](CC(C)C)C(=O)N[C@@H](C)C(=O)N[C@@H](C)C(=O)N[C@@H](CC(C)C)C(=O)N[C@@H](C)C(=O)N[C@@H](CCCCN)C(=O)N[C@@H](CCCCN)C(=O)N[C@H](C(=O)N[C@@H](CC(C)C)C(N)=O)[C@@H](C)CC [P2],36.9174,-4.49
CC[C@H](C)[C@H](N)C(=O)N[C@@H](CC(N)=O)C(=O)N[C@@H](CC(C)C)C(=O)N[C@@H](CCCCN)C(=O)N[C@@H](C)C(=O)N[C@H](C(=O)N[C@@H](C)C(=O)N[C@@H](C)C(=O)N[C@@H](CC(C)C)C(=O)N[C@@H](C)C(=O)N[C@@H](CCCCN)C(=O)N[C@@H](CCCCN)C(=O)N[C@H](C(=O)N[C@@H](CC(C)C)C(N)=O)[C@@H](C)CC)[C@@H](C)CC [I6],31.3138,13.3589
